The text below walks through data of patent EP2657347A1, “Electrochemical competitive assay and use thereof” (Université Paris Diderot - Paris 7, priority 2012, dated 2013).

Where two headings read alike, the source gives them in different places.

For orientation: Kd means the constant that tells how readily two partners part at equilibrium.

Test [1] deals with D-Apt49. The test can be described thus: Homogeneous electrochemical competitive binding assay in Tris buffer. The settings on record: 5 µM Fc-L-Tym, K^*d fixed at 1.2 µM. The procedure:
All experiments were performed in 5 mM Tris buffer (pH 7) containing 10 mM MgCl2 and 50 mM NaCl (Recognition Buffer, RBr). The L-Tym concentration is always 5 µM. For cyclic voltammetric experiments, 1 µM [Os(bpy)3]2+ with 5 µM 1-Tym in a droplet of 50 µL RBr was used. So, before each experiment, the droplet is shaking with a micropipette. This procedure is repeated until we obtain a reproducible and stable voltammogram. Mother solution of Fc-1-Tym was a […] solution in DMF. This product is conserved at 4°C and seal with parafilm. Before each experiment, this solution is diluted 10 times in stabilized DMF, such as 0.2 µL in 50 µL of RBr leads to 5 µM of Fc-1-Tym.
Cyclic voltammetry measurements were performed with an AUTOLAB PGSTAT 12 potentiostat/galvanostat controlled by computer, and the data were acquired using GPES 4.9007 software (EcoChemie, The Netherlands). Small self-contained electrochemical cells made of 3 screen-printed electrodes on a flat substrate were used for all experiments. The electrodes were printed using a DEK model-65 screen-printer. Working electrodes were 4 mm diameter screen-printed carbon electrodes prepared using a commercial carbon ink (Electrodag PF-470 A) deposited on the top of an underlying Ag layer (Electrodag 418 SS). Counter electrode was obtained using an Ag ink (Electrodag 418 SS).
Before experiments, the screen-printed carbon electrodes were coated with bovine serum albumin (BSA) by immersing the electrodes in a 1 mg/mL BSA solution for 10 minutes at room temperature. The BSA-modified electrodes were next cycled between 0 V and 0.8 V at v = 0.05 V/s, until of the capacitive background current in cyclic voltammetry was stablized.
The competitive assay can be described by the two equilibrated binding reactions 6a and 6b, in which Fc-L-Tym is L-tyrosinamide labeled by a redox-active ferrocene group. The ferrocenyl label was here incorporated on the ―OH position of the phenolic group (Scheme 1). Note that under this condition the catalytic oxidation of the phenolic residue is no more possible and only the ferrocene labeled molecule can be detected. [drawing 63] [drawing 64] with Kd = (CTCR)/CRT [formula] Kd^(*) = (CT^(*)CR)/CRT^(*) [formula] where CR is the concentration of free aptamer receptor. […] Ideally, the two binding constants should be as close as possible (Kd ≈ K^*d). The value of K^*d was determined by monitoring in CV the reversible response of 5 µM Fc-L-Tym solution as a function of increasing concentrations of D-Apt49.
The competitive binding assay was achieved from two separate solutions containing a starting mixture of 5 µM Fc- L-Tym and 3 µM or 10 µM D-Apt49, and to which an increasing amount of L-Tym was added. […]

Test [2] concerns the target D-Apt49. The test can be described thus: Homogeneous electrochemical competitive binding assay in 20% fetal bovine serum. The method, then:
• Figure 1: Electrochemically competitive assay of the invention. Left-hand column: before the addition of the sample: a first redox signal is measured. Right-hand column: after the addition of a sample containing the target to be detected or measured: a second redox signal is measured. (A) Homogeneous electrochemically competitive assay: the presence of the target disrupts the complex formed between the oligonucleotide ligand and the redox-labeled target. […] (B) Heterologous electrochemically competitive assay, wherein the oligonucleotide ligand is attached to a solid phase: the presence of the target disrupts the complex formed between the oligonucleotide ligand and the redox-labeled target, thereby inducing a better detection of the redox labeled-target. […] (C) Heterologous electrochemically competitive assay, wherein the oligonucleotide ligand is attached to the electrode: the presence of the target disrupts the complex formed between the oligonucleotide ligand and the redox-labeled target, thereby reducing the detection of the redox labeled-target. […] (f) CV of 1 µM [Os(bpy)3]^2+ alone. […] Error bars: standard deviations from 3 measurements. Plain lines: fits of eq 5 to the experimental data. • Figure 3: (A) CVs (v = 0.05 V s^-1) of 5 mM Tris buffer (pH 7.0) containing 50 mM NaCl, 10 mM Mg^2+, 5 µM Fc-L-Tym and (a) 0 µM, (b) 1 µM, (c) 2 µM, (d) 3 µM, (e) 4 µM (f) 5 µM (g) 7.5 µM (h) 10 µM (i) 12.5 µM and (j) 15 µM of D-Apt49. (B) Normalized anodic peak current response as a function of aptamer concentration. Each data is the average of 3 measurements. Error bars are standard deviations. Plain line: fit of eq 5 to the experimental data. • Figure 4: Competitive binding curves performed in (A) 5 mM Tris buffer (pH 7 + 50 mM NaCl + 10 mM MgCl2) or (B) 20% fetal bovine serum (simply diluted with a 4 mM MgCl2 aqueous solution) as a function of (●, ★, ▼, Δ) L-Tym or (○) D-Tym concentration. (*) Assay of 5 µM L-Tym in the presence of 5 mM D-Tym. The Fc-L-Tym concentration was always C^0T*= 5 µM, whereas the D-Apt49 concentrations were C^0R: (●) 3, (★,○,*) 10, (▼) 40 and (Δ) 100 µM.
The enantiospecificity of the assay was next characterized using the same methodology but for solutions containing the D-Tym enantiomer. […] To evaluate the enantiospecific performance of the aptamer, the assay of trace amount of L-Tym in the presence of a large excess of D-Tym was examined and, as reported in Figure 4A, it has been found possible to detect as low as 5 µM L-Tym in the presence of 5 mM D-Tym. This remarkable performance means that as low as 0.1 % of an enantiomeric impurity in a nonracemic mixture can be assayed in a very short analysis time (<1 min). This is competitive with conventional separation techniques, and one order of magnitude lower than the 1% currently attainable by NMR. Finally, the ability to perform an assay under realistic biological conditions was examined. For such purpose, homogenous electrochemical competitive binding assays of 5-fold diluted fetal bovin serum samples spiked with known amounts of […] were then performed (Figure 4B).

Test [3] concerns the target anti-L-tyrosinamide aptamer. Particulars: previously determined by isothermal titration calorimetry; cited from earlier work.
The target in test [4] is anti-L-tyrosinamide aptamer. Particulars: previously determined by fluorescence polarization; cited from earlier work. (In general: Fluorescence polarisation rises when a labelled molecule tumbles more slowly, as on binding a larger partner.)

Take `NC(=O)[C@@H](N)Cc1ccc(O)cc1` [L-Tym, L-tyrosinamide]: the Kd on D-Apt49 [1] (3 µM D-Apt49, Tris buffer) is 2800 ± 400 nM; on D-Apt49 [1] (10 µM D-Apt49, Tris buffer), 2200 ± 600 nM; at D-Apt49 [2] (5-fold diluted fetal bovine serum, average of the fitted curves, read-out: Kd (average value)), 10000 nM; at D-Apt49 [2] (20% fetal bovine serum, 5 µM Fc-L-Tym, 40 µM D-Apt49, read-out: Kd) it was 9000 nM; at D-Apt49 [2] (20% fetal bovine serum, 5 µM Fc-L-Tym, 100 µM D-Apt49, read-out: Kd), 11000 nM; in test [3], 1750 to 3200 nM. Besides, in test [4], the Kd is 1700 to 2200 nM.
